Molecular target: HiBit-KRAS^G12C (Homo sapiens, UniProt P01116, G12C)
Experiment: HiBit degradation assay in SW1573 HiBit-KRas^G12C cells
Format: cell-based
Parameters: expressed in transfected cells; host or cells: SW1573 (clone E6), modified pcDNA3.1 vector, TK promoter
Details: 0.1% DMSO, 24 hours; for DC50: SW1573 HiBit-KRas^G12C, read-out: KRas^G12C-HIBit (SW1573; 0.1% DMSO) DC50*; for Dmax: SW1573, SW1573 HiBit-KRas^G12C, read-out: KRas^G12C-HiBit (SW1573; 0.1% DMSO) Dmax**
Method: Reagents. SW1573 (CRL-2170) and MiaPaCa-2 (CRL-1420) cells were purchased from ATCC. Both cell lines are […] for the G12C mutation in KRAS. SW1573 cells were cultured in DMEM+F12+Glutamax (+Sodium Bicarbonate, +sodium pyruvate, Thermofisher scientific, #10565) supplemented with 10% FBS (Thermofisher scientific, #2060357) and 1% Antibiotic-Antimycotic (Thermofisher scientific, #15240096). MiaPaCa-2 cells were cultured in DMEM+Glutamax media (Thermofisher scientific, #10566) supplemented with 10% FBS (Thermofisher scientific, #2060357) and 1% Antibiotic-Antimycotic (Thermofisher scientific, #15240096). For degradation assays, 384 well plates were purchased from Corning (Corning® CellBIND® 384-well Flat Clear Bottom Black Polystyrene Microplates, Low Flange, #3770). Gambogic acid was purchased from Selleckchem (#S2448). Alamar blue was purchased from Thermofisher scientific (A50101) and used according to manufacturer instructions. The Nano-Glo® HiBit Lytic Detection System and Nano-Glo® HiBit Blotting System were purchased from Promega (#N3050 and #N2410) and used according to manufacturer instructions.
To create the SW1573 HiBit-KRAS^G12C cell line, the nucleotide sequence encoding the 11 amino acid HiBit tag from Promega (Schwinn, M. K. et al. (2018) CRISPR-mediated tagging of endogenous proteins with a luminescent peptide. ACS Chem. Biol. 13(2), 467-474) was appended to the N-terminus of the KRAS^G12C coding sequence. This synthesized DNA was cloned into a modified pcDNA3.1 vector under the control of the thymidine kinase (TK) promoter. This HiBit-KRAS^G12C expressing plasmid was transfected into parental SW1573 cells and colonies were selected using 400 μg/mL zeocin. The resulting clonal lines were screened for expression of HiBit-KRAS^G12C protein using Nano-Glo® HiBit Blotting System. A luminescent band of the correct size for HiBit-KRAS^G12C was detected in several clones. Clone E6 was selected for further studies.
Either SW1573 HiBit-KRas^G12C or MiaPaCa-2 HiBit-KRas^G12C cells were plated at 9000 cells/well in a 384 well plate (Corning #3770). Exemplary heterobifunctional molecules and positive controls were diluted in the appropriate cell media and applied to the plated cells resulting in a final concentration titration of 10 μM to 20 nM in either 0.1% or 0.5% dimethyl sulfoxide (DMSO). Gambogic acid was used as a positive control for cytotoxicity and titrated from 10 μM to 78 nM. All assays were performed in triplicate. Cells were treated with compounds for 24 hours at 37° C. in an incubator containing 5% CO2. Following treatment, alamar blue was used to determine if any compounds led to a loss in cell viability after 24 hours. The 10× alamar blue reagent was added to a final concentration of 1× as recommended by the manufacturer and cells were returned to the incubator for 4 hours. Plates were then allowed to equilibrate to room temperature and fluorescence was measured using a Perkin-Elmer EnVision. After completion of the fluorescence read, the liquid from each well was removed and the cells were washed with PBS. The Nano-Glo® HiBiT detection reagent was prepared according to the manufacturer's instructions and added to each well after the PBS wash was removed. Following incubation at room temperature for 45 minutes, the luminescence was read using the ultra-sensitive luminescence aperture on the Envision instrument.
Fluorescence values from the alamar blue treatment were normalized to the DMSO only control for each compound titration. We hypothesized that compounds that led to a ≥50% loss in cell viability of the KRAS-independent SW1573 HiBit-KRas^G12C cells were likely generally cytotoxic and loss of HiBit-KRAS^G12C signal from these compounds may be due to lower cell number and not specific KRAS^G12C degradation. These points were therefore excluded from the data analysis for degradation. […]

Sequence of HiBit-KRAS^G12C (P01116 1-186 isoform P01116-2 G12C limits assumed): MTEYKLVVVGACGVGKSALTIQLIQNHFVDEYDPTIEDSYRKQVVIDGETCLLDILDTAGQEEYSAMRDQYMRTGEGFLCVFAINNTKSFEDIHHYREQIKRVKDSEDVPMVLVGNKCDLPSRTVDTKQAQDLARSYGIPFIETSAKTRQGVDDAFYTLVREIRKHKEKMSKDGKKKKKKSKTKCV

`C=CC(=O)N1CCN(c2nc(O[C@H](C)CN3CCC(CCCN4CCN(CC(=O)N[C@H](C(=O)N5C[C@H](O)C[C@H]5C(=O)N[C@@H](C)c5ccc(-c6scnc6C)cc5)C(C)(C)C)CC4)CC3)nc3c(F)c(-c4cc(O)cc5ccccc45)c(Cl)cc23)CC1` [Compound 56, (2S,4R)-1-[(2S)-2-{2-[4-(3-{1-[(2R)-2-{[6-chloro-8-fluoro-7-(3-hydroxynaphthalen-1-yl)-4-[4-(prop-2-enoyl)piperazin-1-yl]quinazolin-2-yl]oxy}propyl]piperidin-4-yl}propyl)piperazin-1-yl]acetamido}-3,3-dimethylbutanoyl]-4-hydroxy-N-[(1S)-1-[4-(4-methyl-1,3-thiazol-5-yl)phenyl]ethyl]pyrrolidine-2-carboxamide] gave a DC50 greater than 1000 nM.

`C=CC(=O)N1CCN(c2nc(O[C@H](C)CN3CCC(OCCOCC(=O)N[C@H](C(=O)N4C[C@H](O)C[C@H]4C(=O)N[C@@H](C)c4ccc(-c5scnc5C)cc4)C(C)(C)C)CC3)nc3c2CCN(c2cccc4ccccc24)C3)C[C@@H]1CC#N` [Compound 58, (2S,4R)-1-[(2S)-2-{2-[2-({1-[(2R)-2-({4-[(3S)-3-(cyanomethyl)-4-(prop-2-enoyl)piperazin-1-yl]-7-(naphthalen-1-yl)-5H,6H,7H,8H-pyrido[3,4-d]pyrimidin-2-yl}oxy)propyl]piperidin-4-yl}oxy)ethoxy]acetamido}-3,3-dimethylbutanoyl]-4-hydroxy-N-[(1S)-1-[4-(4-methyl-1,3-thiazol-5-yl)phenyl]ethyl]pyrrolidine-2-carboxamide] was tested, and the DC50 was greater than 1000 nM.

In the case of `C=CC(=O)N1CCN(c2nc(O[C@H](C)CN3CCC(OCCOCCOCCOc4cc(-c5scnc5C)ccc4CNC(=O)[C@@H]4C[C@@H](O)CN4C(=O)[C@@H](c4cc(C)no4)C(C)C)CC3)nc3c(F)c(-c4cc(O)cc5ccccc45)c(Cl)cc23)CC1` [Compound 70, (2S,4R)-N-{[2-(2-{2-[2-({1-[(2R)-2-{[6-chloro-8-fluoro-7-(3-hydroxynaphthalen-1-yl)-4-[4-(prop-2-enoyl)piperazin-1-yl]quinazolin-2-yl]oxy}propyl]piperidin-4-yl}oxy)ethoxy]ethoxy}ethoxy)-4-(4-methyl-1,3-thiazol-5-yl)phenyl]methyl}-4-hydroxy-1-[(2R)-3-methyl-2-(3-methyl-1,2-oxazol-5-yl)butanoyl]pyrrolidine-2-carboxamide], the DC50 is reported as greater than 1000 nM.

`C=CC(=O)N1CCN(c2nc(O[C@H](C)CN3CCC(OCCOCCOc4cc(-c5scnc5C)ccc4CNC(=O)[C@@H]4C[C@@H](O)CN4C(=O)[C@H](c4cc(C)no4)C(C)C)CC3)nc3c(F)c(-c4cc(O)cc5ccccc45)c(Cl)cc23)CC1` [Compound 71, (2S,4R)-N-[(2-{2-[2-({1-[(2R)-2-{[6-chloro-8-fluoro-7-(3-hydroxynaphthalen-1-yl)-4-[4-(prop-2-enoyl)piperazin-1-yl]quinazolin-2-yl]oxy}propyl]piperidin-4-yl}oxy)ethoxy]ethoxy}-4-(4-methyl-1,3-thiazol-5-yl)phenyl)methyl]-4-hydroxy-1-[(2S)-3-methyl-2-(3-methyl-1,2-oxazol-5-yl)butanoyl]pyrrolidine-2-carboxamide] gave a Dmax of less than 35% and a DC50 of 100 to 1000 nM.

Work on `C=CC(=O)N1CCN(c2nc(O[C@H](C)CN3CCC(OCCOCCOc4cc(-c5scnc5C)ccc4CNC(=O)[C@@H]4C[C@@H](O)CN4C(=O)[C@@H](c4cc(C)no4)C(C)C)CC3)nc3c(F)c(-c4cc(O)cc5ccccc45)c(Cl)cc23)CC1` [Compound 72, (2S,4R)-N-[(2-{2-[2-({1-[(2R)-2-{[6-chloro-8-fluoro-7-(3-hydroxynaphthalen-1-yl)-4-[4-(prop-2-enoyl)piperazin-1-yl]quinazolin-2-yl]oxy}propyl]piperidin-4-yl}oxy)ethoxy]ethoxy}-4-(4-methyl-1,3-thiazol-5-yl)phenyl)methyl]-4-hydroxy-1-[(2R)-3-methyl-2-(3-methyl-1,2-oxazol-5-yl)butanoyl]pyrrolidine-2-carboxamide] yielded a DC50 greater than 1000 nM.

With `C=CC(=O)N1CCN(c2nc(OC[C@@H]3C[C@@H](OCCOCCOCCOCCOCCOCCOCCOCCOCCOCCOCC(=O)N[C@H](C(=O)N4C[C@H](O)C[C@H]4C(=O)N[C@@H](C)c4ccc(-c5scnc5C)cc4)C(C)(C)C)CN3C)nc3c2CCN(c2cccc4ccccc24)C3)C[C@@H]1CC#N` [Compound 73, (2S,4R)-1-[(2S)-2-(32-{[(3R,5S)-5-[({4-[(3S)-3-(cyanomethyl)-4-(prop-2-enoyl)piperazin-1-yl]-7-(naphthalen-1-yl)-5H,6H,7H,8H-pyrido[3,4-d]pyrimidin-2-yl}oxy)methyl]-1-methylpyrrolidin-3-yl]oxy}-3,6,9,12,15,18,21,24,27,30-decaoxadotriacontanamido)-3,3-dimethylbutanoyl]-4-hydroxy-N-[(1S)-1-[4-(4-methyl-1,3-thiazol-5-yl)phenyl]ethyl]pyrrolidine-2-carboxamide] the DC50 was greater than 1000 nM.

In the case of `C=CC(=O)N1CCN(c2nc(OC[C@@H]3C[C@@H](OCCOCCOCCOCCOCCOCCOCCOCCOCC(=O)N[C@H](C(=O)N4C[C@H](O)C[C@H]4C(=O)N[C@@H](C)c4ccc(-c5scnc5C)cc4)C(C)(C)C)CN3C)nc3c2CCN(c2cccc4ccccc24)C3)C[C@@H]1CC#N` [Compound 74, (2S,4R)-1-[(2S)-2-(26-{[(3R,5S)-5-[({4-[(3S)-3-(cyanomethyl)-4-(prop-2-enoyl)piperazin-1-yl]-7-(naphthalen-1-yl)-5H,6H,7H,8H-pyrido[3,4-d]pyrimidin-2-yl}oxy)methyl]-1-methylpyrrolidin-3-yl]oxy}-3,6,9,12,15,18,21,24-octaoxahexacosanamido)-3,3-dimethylbutanoyl]-4-hydroxy-N-[(1S)-1-[4-(4-methyl-1,3-thiazol-5-yl)phenyl]ethyl]pyrrolidine-2-carboxamide], the DC50 is reported as greater than 1000 nM.

In the case of `C=CC(=O)N1CCN(c2nc(O[C@H](C)CN3CCC(OCCOCCOCCOCCOc4cc(-c5scnc5C)ccc4CNC(=O)[C@@H]4C[C@@H](O)CN4C(=O)[C@H](c4cc(C)no4)C(C)C)CC3)nc3c(F)c(-c4cc(O)cc5ccccc45)c(Cl)cc23)CC1` [Compound 75, (2S,4R)-N-({2-[2-(2-{2-[2-({1-[(2R)-2-{[6-chloro-8-fluoro-7-(3-hydroxynaphthalen-1-yl)-4-[4-(prop-2-enoyl)piperazin-1-yl]quinazolin-2-yl]oxy}propyl]piperidin-4-yl}oxy)ethoxy]ethoxy}ethoxy)ethoxy]-4-(4-methyl-1,3-thiazol-5-yl)phenyl}methyl)-4-hydroxy-1-[(2S)-3-methyl-2-(3-methyl-1,2-oxazol-5-yl)butanoyl]pyrrolidine-2-carboxamide], the Dmax is reported as less than 35% and the DC50 is reported as greater than 1000 nM.

Work on `C=CC(=O)N1CCN(c2nc(O[C@H](C)CN3CCC(OCCOCCOCCOCCOc4cc(-c5scnc5C)ccc4CNC(=O)[C@@H]4C[C@@H](O)CN4C(=O)[C@@H](c4cc(C)no4)C(C)C)CC3)nc3c(F)c(-c4cc(O)cc5ccccc45)c(Cl)cc23)CC1` [Compound 76, (2S,4R)-N-({2-[2-(2-{2-[2-({1-[(2R)-2-{[6-chloro-8-fluoro-7-(3-hydroxynaphthalen-1-yl)-4-[4-(prop-2-enoyl)piperazin-1-yl]quinazolin-2-yl]oxy}propyl]piperidin-4-yl}oxy)ethoxy]ethoxy}ethoxy)ethoxy]-4-(4-methyl-1,3-thiazol-5-yl)phenyl}methyl)-4-hydroxy-1-[(2R)-3-methyl-2-(3-methyl-1,2-oxazol-5-yl)butanoyl]pyrrolidine-2-carboxamide] yielded a DC50 greater than 1000 nM.
